Consider ten compounds from patent publication US6586410B1, “Lipid-nucleic acid particles prepared via a hydrophobic lipid-nucleic acid complex intermediate and use for gene transfer” (Inex Pharmaceuticals Corporation, priority 1995, dated 2003).

Data set [1] in a line: Plasmid encapsulation (protection from external medium) by anion exchange chromatography on DEAE Sepharose CL-6B. Format: physicochemical. Conditions: for cationic lipid concentration required for optimal plasmid encapsulation: detergent dialysis. How it is done:
The extent of encapsulation or protection of the plasmid from the external medium was assessed by anion exchange chromatography as follows: a 50 μl aliquot of each sample was eluted on a DEAE Sepharose CL-6B column and the fractions were assessed for both ^3H-plasmid and ^14C-lipid by scintillation counting. Any exposed negative charges, such as those present on DNA molecules will bind-to the anion exchange column and will not elute with the ^14C-lipid. DNA which has its negative charge, “protected” or non-exposed will not bind to the anion exchange resin and will elute with the ^14C-lipid. Alternatively, plasmid DNA was measured using the indicator dye, PicoGreen®.

In data set [2] the test system is plasmid DNA. Kind of data set: Bligh and Dyer extraction: DNA partitioning between aqueous and organic phase. Format: physicochemical. Conditions: for amount of lipid for complete partitioning of the DNA into the organic phase: preformed liposomes; for DNA partitioning into the organic phase versus charge ratio: polyvalent lipids compared with monovalent cationic lipids; for DNA partitioning: nonlipid cations, charge ratios up to and in excess of 4. How it is done: […] This mixture of solvents and water is equivalent to that used in the preparation of a Bligh and Dyer monophase (Bligh and Dyer, Can. J. Biochem. Physiol. 37:91-97 (1959)). Typically, DNA was added to achieve a final concentration of […] in solution while lipid was added at various concentrations. Trace quantities of 3H-plasmid DNA were added such that 2000 to 4000 dpm were present per 10 g unlabelled DNA. The reaction mixtures were incubated at room temperature for 30 min in a total volume of 1 mL. Subsequently the Bligh and Dyer monophase was partitioned into a two phase system by the addition of water and chloroform (250 L each). The samples were mixed by vortexing and the separation of the lower organic and upper aqueous phases was facilitated by centrifugation at 2000 rpm for 5 min at room temperature. The aqueous phase was removed and retained for scintillation counting. The solvent phase was dried using a stream of nitrogen gas, and the resulting film was resuspended in SOLVABLE solubilizing agent (Dupont NEN, Boston, Mass., USA) and incubated at 50° C. for 1 hour. […] PICOFLUOR scintillant (Canberra Packard, Meriden, Conn., USA) was added to all samples and the radioactivity (3H-DNA) was measured using a Packard TR 1900 Scintillation Counter (Canberra Packard).
Assays evaluating the stability of charge-neutralized, lipid-nucleic acid complexes were done in the presence of varying concentration of NaCl and OGP. Briefly, cationic lipid-nucleic acid complexes were prepared under conditions where 100% of the plasmid was expected to be recovered in the organic phase. NaCl or OGP was then added to the monophase system and incubations carried out at room temperature for 15 min. Bligh and Dyer extractions were performed as described above. The binding of calcium, L-lysine, and poly-L-lysine to the plasmid was evaluated using a modification of the above procedure. These nonlipid cationic materials were dissolved at various concentrations in sterile distilled water and incubated with the plasmid ([…] final concentration in water) at room temperature for 30 min in a final volume of 250 L. Reaction volumes were adjusted to 1 mL with chloroform:methanol (1:2.1) to produce a monophase. Bligh and Dyer extractions were then performed as described.

Data set [3] has as its system plasmid DNA. In words: Agarose gel electrophoresis: DNA mobility. Format: physicochemical. How it is done:
Complexes involving plasmid and poly-L-lysine were formed at a nucleic acid concentration of 10 µg/mL and a 1:1 charge ratio in the presence of 100 mM OGP. Complexes involving the cationic lipid DODAC and plasmid were formed at a plasmid concentration of 10 µg/mL and increasing concentrations of DODAC (10 to 320 nmoles/mL). The mixtures were incubated at room temperature for 30 min prior to loading onto a 0.8% agarose gel. Electrophoresis was carried out in TBE buffer according to standard techniques (Sambrook, et al., Molecular Cloning: A Laboratory Manual, Second Edition, Cold Spring Harbor, N.Y. (1989)). Nucleic acids were visualized after staining the gel with ethidium bromide ([…], 20 min) by photography with UV transillumination.

For data set [4], the system named is plasmid DNA. In words: TO-PRO-1 dye intercalation assay (DNA condensation). Conditions: Bligh and Dyer monophase; 1 μM TO-PRO-1; 533 nm. Format: physicochemical. How it is done:
The fluorochrome TO-PRO-1 was used to evaluate the state of condensation of the plasmid in the charge-neutralized lipid-nucleic acid complex. TO-PRO-1 was used in this study due to its stable intercalation into the plasmid as well as the high sensitivity in the fluorescence detection compared with the more common intercalator ethidium bromide (see, Hirons, et al., Cytometry 15:129-140 (1994)). Plasmid was dissolved in either the Bligh and Dyer monophase or in 100 mM OGP. Poly-L-lysine or DODAC were each added to 10 g plasmid at a 1:1 charge ratio.
Evaluation of the hydrophobic, charge-neutralized lipid-nucleic acid complexes was carried out by assessing the ability of a small fluorescent probe to bind to the nucleic acid in the complex. […] TO-PRO-1 was then added to a final concentration of 1 μM and fluorescence was measured at 533 nm (probe excitation at 509 nm). […] However, when plasmid DNA was added (10 μg/mL) there was a >600 fold increase in fluorescence at 533 nm. […]
The fluorochrome (TO-PRO-1) was used to evaluate the state of condensation of the DNA in the lipid-nucleic acid particle. […] To measure fluorescence, spectrofluorometric measurements were performed using a Luminescence Spectrometer 50B (Perkin Elmer Ltd., Buckinghamshire, England) with an excitation wavelength of 509 nm and an emission wavelength of 533 nm. […]

Data set [5] deals with plasmid DNA. Conditions: DNA condensed by addition of polylysine (Reimer et al., 1995); cited from earlier work.

For the compound “1-O-(2′-(ω-methoxypolyethyleneglycol)succinoyl)-2-N-myristoyl-sphingosine [PEG-C14]”, in data set [1] (7.5% DODAC and DOPE, dialysis method), the “PEG-C14 concentration giving best entrapment” value stood at 10 mol %.

`CCCCCCCCCCCCCCOCC(C[N+](C)(C)CCO)OCCCCCCCCCCCCCC.[Br-]` (stereo not drawn) [DMRIE, N-(1,2-dimyristyloxyprop-3-yl)-N,N-dimethyl-N-hydroxyethyl ammonium bromide]: in data set [1], the “cationic lipid concentration required for optimal plasmid encapsulation” value (“cationic lipid concentration required” for short) worked out at 8%.

As for `CCCCCCCC/C=C\CCCCCCCC[N+](C)(C)CCCCCCCC/C=C\CCCCCCCC.[Cl-]` [DODAC, N,N-dioleyl-N,N-dimethylammonium chloride], the “cationic lipid concentration required” value in data set [1] stood at 8%. For the same compound, the “DNA partitioned into the organic phase” value in data set [2] (10 μg DNA, 40 nmoles DODAC, OGP up to 20 mM) is “greater than 99%”. Further, the “DNA mobility in agarose gel” value in data set [3] (addition of 320 nmoles of DODAC) is “decrease in DNA migrating into the gel”.

In the case of `CCCCCCCCCCCCCCCCCCN(CCCCCCCCCCCCCCCCCC)C(=O)CNC(=O)C(CCCNCCCN)NCCCN` (stereo not drawn) [DOGS], the “amount of lipid for complete partitioning of the DNA into the organic phase” value in data set [2] (10 μg DNA) is on record as “approximately 10 nmoles”. In data set [2], the “DNA partitioning into the organic phase versus charge ratio” value is reported as “a slightly greater charge ratio was required”.

With `CCCCCCCC/C=C\CCCCCCCCOCC(C[N+](C)(C)CCNC(=O)C(CCCNCCCN)NCCCN)OCCCCCCCC/C=C\CCCCCCCC.O=C([O-])C(F)(F)F` (stereo not drawn) [DOSPA, N-(-(2,3-dioleyloxy)propyl)-N-(2-(sperminecarboxamido)ethyl)-N,N-dimethylammonium trifluoroacetate], the “amount of lipid for complete partitioning of the DNA into the organic phase” value in data set [2] (10 μg DNA) is listed as “approximately 10 nmoles”. In data set [2] (Na+ in a 300-fold molar excess), the “stability of complex in presence of NaCl” value is “did not cause partitioning”. The “DNA partitioning into the organic phase versus charge ratio” value in data set [2] is “a slightly greater charge ratio was required”.

Turning to `CCCCCCCC/C=C\CCCCCCCCOCC(C[N+](C)(C)C)OCCCCCCCC/C=C\CCCCCCCC.[Cl-]` (stereo not drawn) [DOTMA, N-(1-(2,3-dioleyloxy)propyl)-N,N,N-trimethylammonium chloride], in data set [1], the “cationic lipid concentration required” value came out at 6.5%.

As to `CCCCCCCCCCCCCCCCCC[N+](C)(C)CCCCCCCCCCCCCCCCCC.[Cl-]` [DSDAC], the “cationic lipid concentration required” value in data set [1] is listed as 6.5%.

For the compound `[Ca+2].[Cl-].[Cl-]` [calcium, calcium chloride], the DNA partitioning entry in data set [2] is given as “majority of the DNA was invariably recovered in the aqueous phase”.

With `NCCCC[C@H](N)C(=O)O` [lysine, L-lysine], the DNA partitioning result in data set [2] is given as “majority of the DNA was invariably recovered in the aqueous phase”.

As to “poly L-lysine hydrobromide [poly-L-lysine]”, in data set [2], the DNA partitioning entry is listed as “majority of the DNA was invariably recovered in the aqueous phase”. Also, in data set [4], the “TO-PRO-1 fluorescence / binding to DNA” value is listed as “no fluorescence was observed”. The “DNA mobility in agarose gel” value in data set [3] (1:1 charge ratio, 100 mM OGP) was “significantly reduced mobility”. Besides, the condensation index entry in data set [5] is “≈ 1.0”.
